Values joined by “and” are separate entries in the source; they are usually repeats but may differ in a detail not shown here. Identical values can stand only once.
Experiments:
[1] = tested on: patients with MDD and an inadequate response to an SSRI or SNRI; assay: HAMD-17 total score, adjunctive pimavanserin in MDD (Study ACP-103-042); type: in vivo, human; conditions: for Response Rate: 50% or greater reduction on HAMD-17
Description: “Hamilton Depression Scale 17-item (HAMD-17)” is a multiple item questionnaire used to provide an indication of depression, and is known to those skilled in the art. The questionnaire is designed for adults to rate the severity of depression by probing mood, feelings of guilt, suicide ideation, insomnia, work and interests, agitation or retardation, anxiety, weight loss, and somatic symptoms. Each item on the questionnaire is scored on a 3 or 5 point scale, depending on the item, and the total score is compared to the corresponding descriptor. A score of 0-7 is considered to be normal. Scores of 14 or higher indicate moderate, severe, or very severe depression. Assessment time is estimated at 20 minutes. […] Key endpoints were change from baseline to the end of each stage for the HAMD-17 total score and SDS score. The study consisted of an 8- to 21-day screening period, a 10-week double-blind treatment period, and a safety follow up period of up to 30 days. Screening assessments consisted of the SAFER Interview ([…] al, Harv Rev Psychiatry. 2013; 21(5):269-74), which included the MADRS, CGI-S, and MGH ATRQ. […] All patients continued on their SSRI or SNRI at a stable dose for the duration of the study. […] Inadequate treatment response was determined through the administration of the MGH ATRQ administered during the SAFER interview. […] Clinic visits occurred weekly from Weeks 1 through 10. The MADRS was administered at screening and baseline. The HAMD-17, SDS, CGI, and KSS were administered at baseline and weekly during the study. Other endpoints such as the SF-12 were administered at baseline and Weeks 5 and 10. Treatment response was defined as a reduction of 50% from baseline for the HAMD-17 total score, and remission was defined as a HAMD-17 total score […] The determination of the subject's status and eligibility for randomization in Stage 2 was made in a double-blind manner.

[2] = tested on: patients with MDD and an inadequate response to an SSRI or SNRI; assay: HAMD-17 Item 14 (sexual interest), Study ACP-103-042; type: in vivo, human; conditions: Week 5
Description: The determination of the subject's status and eligibility for randomization in Stage 2 was made in a double-blind manner.

[3] = tested on: adults with Parkinson's disease and depression; assay: SCOPA Sleep, open-label study in Parkinson's disease and depression; type: in vivo, human; conditions: interim, first 31 patients
Description: “Scale of Outcomes in Parkinson's Disease (SCOPA) Sleep” is a scale developed for research in Parkinson disease to evaluate nighttime sleep and daytime sleepiness and has high internal consistency for the nighttime sleep and daytime sleepiness scales (0.88 and 0.91, respectively), and test-retest reliabilities (0.94 and 0.89, respectively). Scores on the SCOPA Sleep Scale show high correlations between the nighttime sleep scale and the Pittsburgh Sleep Quality Index (0.83), and between the daytime sleepiness scale and the Epworth Sleepiness Scale (0.81). The coefficient of variation of both the nighttime sleep and the daytime sleepiness scale can be higher than that of the Pittsburgh Sleep Quality Index and the Epworth Sleepiness Scale, indicating a better ability to detect differences between individuals. (Marinus J, Visser M, van Hilten J J, Lammers G J, Stiggelbout A M. Sleep. 2003; 26(8):1049-1054.)
(§1) Subjects can receive treatment as either monotherapy or adjunctively if inadequately controlled with SSRI/SNRI monotherapy. A primary endpoint of the study is change from baseline to Week 8 in the Hamilton Depression Scale 17-item (HAMD-17) total score. Secondary endpoints include Clinical Global Impression (CGI) scales (improvement and severity), Scale of Outcomes in PD-Sleep (SCOPA), and quality of life as measured by EuroQol-5 dimensions-5 levels (EQ-5D-5L).
At approximately 2, 4, and 6 weeks after start of dosing of study drug subjects returned to the clinic for assessments. Safety measures, HAMD-17, C-SSRS (Columbia Suicide Severity Rating Scale), CGI-S(Clinical Global Impression-Severity), and CGI-I (Clinical Global Impression-Improvement) were evaluated at all visits. […]
Continuous secondary efficacy endpoints (CGI-I, CGI-S, SCOPA, and EQ-5D-5L) were analyzed using similar MMRM models as for the primary efficacy endpoint, except that the Baseline value of the endpoint being analyzed was included in the model as a covariate instead of the Baseline HAMD-17 total score. […]

[4] = tested on: adults with Parkinson's disease and depression; assay: Adverse events, open-label study in Parkinson's disease and depression; type: in vivo, human; conditions: of the first 31 patients; most common falls, UTI, diarrhea, nausea
Description: as §1
Adverse events were classified into standard terminology using the Medical Dictionary for Regulatory Activities (MedDRA). Treatment-emergent adverse events (TEAEs), TEAEs leading to discontinuation, TEAEs related to study drug, TEAEs by maximum severity, serious adverse events (SAEs), and SAEs related to study drug were summarized.

[5] = biological target: norepinephrine transporter (Homo sapiens, UniProt P23975); assay: Receptor profile: affinity (Ki) at NET; type: binding; conditions: data on file
norepinephrine transporter, sequence (P23975 whole entry, species assumed): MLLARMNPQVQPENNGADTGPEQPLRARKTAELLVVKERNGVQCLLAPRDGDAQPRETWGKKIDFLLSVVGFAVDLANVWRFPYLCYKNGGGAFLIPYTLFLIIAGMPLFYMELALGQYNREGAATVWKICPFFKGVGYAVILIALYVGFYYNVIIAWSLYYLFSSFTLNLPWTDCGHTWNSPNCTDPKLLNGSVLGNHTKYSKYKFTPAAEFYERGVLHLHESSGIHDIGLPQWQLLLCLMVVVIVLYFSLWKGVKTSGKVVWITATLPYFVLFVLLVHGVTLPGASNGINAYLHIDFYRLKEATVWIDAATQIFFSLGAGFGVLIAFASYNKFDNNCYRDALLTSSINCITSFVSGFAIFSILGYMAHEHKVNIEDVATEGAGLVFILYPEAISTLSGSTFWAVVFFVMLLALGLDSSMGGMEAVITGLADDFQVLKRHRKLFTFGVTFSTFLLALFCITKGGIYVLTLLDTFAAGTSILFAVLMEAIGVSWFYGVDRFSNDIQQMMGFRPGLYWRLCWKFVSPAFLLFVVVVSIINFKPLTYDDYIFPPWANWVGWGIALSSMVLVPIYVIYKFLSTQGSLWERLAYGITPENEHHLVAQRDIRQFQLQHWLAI

[6] = Stage 1, subgroup baseline anxiety/somatization subscale score ≥7
[7] = Stage 2, subgroup baseline anxiety/somatization subscale score ≥7

## CC(C)COc1ccc(CNC(=O)N(Cc2ccc(F)cc2)C2CCN(C)CC2)cc1 [pimavanserin, N-(4-Fluorophenylmethyl)-N-(1-methylpiperidin-4-yl)-N′-(4-(2-methylpropyloxy)phenylmethyl)carbamide]
[1]; Stage 1
  NNT for remission: 8.1
  early improvement (reduction from baseline in HAMD-17 total score of 20% or more) vs placebo: early improvement at week 1 was observed
[1]; Stage 1, Week 2 through Week 5
  response and remission rates vs placebo: significantly (p<0.05) greater
[1]; Stage 1, 34 mg QD + SSRI/SNRI
  HAMD-17 total score LSmean (SE) change from baseline to Week 5: −11.5 (0.94)
  Remission Rate: 23.5%
  Response Rate: 52.9%
[1]; Stage 1, 34 mg QD + SSRI/SNRI, listed as Pimavanserin
  HAMD-17 total score LSmean (SE) change from baseline to Week 5: −11.5
[1]; Stage 1, response = reduction of 50% from baseline HAMD-17 total score
  NNT for response: 3.6
[1]; [6]
  HAMD-17 total score Diff in LSM (SE) vs placebo: −6.6 (1.64)
  HAMD-17 total score effect size (Cohen's d): 0.940
[1]; Stage 1, subgroup baseline anxiety/somatization subscale score ≥7, 34 mg QD + SSRI/SNRI
  HAMD-17 total score LSM (SE) Change from Baseline to Week 5: −14.1 (1.39)
[1]; Stage 1 Week 5, 34 mg QD + SSRI/SNRI
  HAMD-17 total score effect size (Cohen's d): 0.626 and ~0.6
[1]; Stage 1 Week 5, 34 mg QD + SSRI/SNRI, listed as Pimavanserin
  HAMD-17 total score effect size (Cohen's d): 0.626
[1]; Stage 2 (placebo non-responders re-randomized), 34 mg QD + SSRI/SNRI
  HAMD-17 total score LSM change from baseline to Week 5: −2.8
[1]; Stage 2, 34 mg QD + SSRI/SNRI
  HAMD-17 Cohen's d: −0.107
  HAMD-17 difference between pimavanserin and placebo (delta): 0.5
  Remission Rate: 3.4%
  Response Rate: 6.9%
[1]; [7]
  HAMD-17 total score Diff in LSM (SE) vs placebo: 0.9 (1.84)
  HAMD-17 total score effect size (Cohen's d): −0.173
[1]; Stage 2, subgroup baseline anxiety/somatization subscale score ≥7, 34 mg QD + SSRI/SNRI
  HAMD-17 total score LSM (SE) Change from Baseline to Week 5: −3.4 (1.25)
[1]; continuous treatment for 10 weeks in Stages 1 and 2, 34 mg QD + SSRI/SNRI
  HAMD-17 effect size, treatment difference in LSmean change from baseline to Week 10: 0.497
[1]; overall (weighted Stage 1 and Stage 2), 34 mg QD + SSRI/SNRI
  HAMD-17 total LSmean difference [standard error] pimavanserin vs placebo: -1.7 (0.85)
[2]
  HAMD-17 Item 14 (sexual interest) Cohen's d effect size: 0.574
[2]; 34 mg QD + SSRI/SNRI
  HAMD-17 Item 14 (sexual interest) LS Mean (SE) change from baseline: −0.7 (0.12)
[3]
  SCOPA-Daytime Sleepiness change from Baseline to Week 8: −2.1 (0.4)
  SCOPA-Global Sleep Quality change from Baseline to Week 8: −1.0 (0.4)
  SCOPA-Nighttime Sleep change from Baseline to Week 8: −2.1 (0.7)
[4]
  patients reporting adverse events: 13
[5]
  Ki: > 1000 nM

Reference: patent US20220016101A1 (ACADIA Pharmaceuticals Inc., priority 2018, published 2022)
